Where two headings read alike, the source gives them in different places.
Experiments:
[1] = test system: Na+—K+—2Cl− cotransporter
Description: Thus, studies were conducted to determine the magnitude of net K uptake mediated by the TM cell Na^+—K^+—2Cl^− cotransporter. For determination of the net potassium uptake, the potassium contents of TM cells were evaluated by atomic absorption spectrophotometry, as described previously by O'Donnell, M. E. (supra, 1993). Briefly, cells were preincubated in 10 μM bumetanide for 5 minutes, and assayed as described above, with the exception that no ^86Rb was present during the assay. Cell ionic contents were extracted with 5% trichloroacetic acid following removal of extracellular potassium by washing the monolayers with ice-cold 0.1 M MgCl2.

TM cell monolayers = assay: Flux of 14C-sucrose across confluent TM cell monolayers on filters; format: cell-based; settings: 15 minute assay period
Description: To investigate the possibility that alteration of TM intracellular volume results in modulation of trabecular meshwork barrier permeability, we evaluated the flux of ^14C-sucrose across confluent TM cell monolayers grown on permeable filters. Cells were grown to confluence on collagen-coated dual level tissue culture filter inserts placed in covered multiwell cluster plates, as shown schematically in […], wherein lower chamber 2 is formed by suspension of membrane 4 with cells attached into holder 6, which is covered by cover 8. Upper chamber 10 is formed by the space within the holder above the membrane. Growth media (EMEM) volumes of 0.5 and 1.5 ml were used for upper and lower chambers, respectively, as previously described (Kajimura, et al., FASEB J, 8:A1045, 1994) for evaluation of endothelial cell monolayers and for evaluation of water permeability of TM cell monolayers (Perkins, et al., Invest. Ophthalmol. Vis. Sci., 29:1836-1846, 1988). One insert was placed in each of 12 wells in a cluster plate. Permeability was assessed as the flux of ^14C-sucrose across the TM cell monolayers. […] Sucrose content of the samples was determined by […] methods. The amount of solute was calculated from the radioactivity present in the sample and the specific activity (cpm/μmol) of the ^14C-sucrose.

bovine TM cells = assay: TM cell volume by electronic cell sizing (Coulter Counter); format: cell-based
Description: By the second method, TM cells were trypsinized briefly in Ca-free medium, then rinsed with medium containing trypsin inhibitor and suspended in Hepes MEM. Mean cell volumes were then analyzed by electronic cell sizing on a Coulter Counter™ […] (Model ZM), with channelizer (C256), using at least 50,000 cells per data point and an orifice diameter of 140 μm. Aliquots of suspended cells were diluted into Hepes MEM containing the tonicity and/or agents to be evaluated. Mean cell volumes of each suspension aliquot were followed over time, starting at 1 minute after addition of cells to the assay media. Cell suspensions were maintained at 37° C. throughout the assay period. Absolute volumes (picoliters/cell) were calculated from distribution curves of cell diameter, using a standard curve generated by polystyrene latex beads of known diameter.
In order to determine whether the Na—K—Cl cotransporter of TM cells may play a role in restoration of intracellular volume following hypertonicity-induced cell shrinkage, we evaluated the effect of hypertonicity on TM cell volume and Na^+—K^+—2Cl^− cotransport activity. […] The intracellular volume of the cells then increased over a slower time course, with volume recovering to approximately 84% by 33 minutes as shown in FIG. 3A.

eye of a rabbit = assay: Intra-ocular pressure in rabbits after subconjunctival injection; format: in vivo
Description: Male albino New Zealand rabbits weighing≧2 Kg were used for in vivo experiments performed under various active animal use protocols approved by the Institutional Animal Care and Use Committee at UC Davis. Animals were sedated with an intravenous dose of Napentabarbitol, 1-2 mg/Kg to permit their handling and frequent measurement of intra-ocular pressure (IOP). Topical anesthesia consisting of Proparacaine HCl (Alcaine™) was used for IOP measurements. A pneumatonometer (Mentor O & O Classic Model 30 Penumatonometer™, Norwell, Mass.) calibrated to a known (25 mmHg) pressure prior to each experiment was used for all IOP measurements. This model of Pneumatonometer provides a readout of standard deviation of each measurement; only measurements with a standard deviation of≦1 mmHg were accepted and most were less than 0.5 mmHg. Following sedation, IOP measurements were carried out over at least 30 minutes to assure that a stable baseline IOP was present.
Drugs and/or vehicle was administered to one eye of each animal via subconjunctival injection in order to bypass any barriers to drug penetration, such as an intact corneal and conjunctival epithelium and to achieve rapid and high concentrations of drug, bypassing epithelial barriers. The contralateral eye treated only with vehicle served as a control for each animal. Two syringes were prepared for each experiment, one containing drug and vehicle, the other containing only vehicle. […] Injections raised a prominent bleb, confirming subconjunctival placement of the drug or vehicle. This bleb then smoothed out over about ten minutes, indicating diffusion of the drug or vehicle throughout the subconjunctival space.
Measurements of intra-ocular pressure were taken at various intervals following the subconjunctival administration of the drug and/or vehicle. IOP in both eyes fluctuated over time reflecting the level of anesthesia. During the course of the experiment, the animal handlers and investigators were masked as to which eve had received the drug or control injection.

Q: Which “bumetanide-sensitive net K uptake” value ([1]; Cl omitted from the incubation medium, n=8) does the source give for `CCCCNc1cc(C(=O)O)cc(S(N)(=O)=O)c1Oc1ccccc1` [bumetanide] here?
A: The value was −2.62±2.82 μmol K/gm protein/min.

Q: And the “bumetanide-sensitive net K uptake” value ([1]; Na omitted from the incubation medium, n=8)?
A: The value was 1.71±2.49 μmol K/gm protein/min.

Q: What about the “bumetanide-sensitive net K uptake” value ([1]; steady state, 10 μM bumetanide) of the same compound?
A: The value was 7.78=1.98 μmol K/gm protein/min.

Q: What about the “monolayer permeability to sucrose” value (TM cell monolayers) of the same compound?
A: The value was “increased”.

Q: What about the intracellular volume (bovine TM cells; 30 minute exposure, bumetanide 10 μM, ethacrynic acid 1 mM, versus Hepes MEM control) of the same compound?
A: The intracellular volume was “significant reduction”.

Q: What about the “volume recovery after hypertonicity-induced cell shrinkage” value (bovine TM cells; hypertonic (400 mOsm) medium containing bumetanide) of the same compound?
A: The value was “greatly attenuated”.

Q: And the “average IOP lowering effect” value (eye of a rabbit; average of two experiments, FIG. 6)?
A: The value was “over 20%”.

Q: What about the “effect on IOP” value (eye of a rabbit; bumetanide 10^−5 M in DMSO, 0.1 cc subconjunctival, first animal) of the same compound?
A: Its value is “rapid and pronounced and lasted beyond two hours”.

Source: patent publication US20020016346A1, “Method for enhancing outflow of aqueous humor in treatment of glaucoma” (The Regents University of California, a California …, priority 1994, published 2002)
